Source: PubChem BioAssay (NCI)
“And” between values parts separate entries of the source, which are not always exact repeats. Equal values may be shown once.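 Five concentrations, 48 hours, 96-well plates. The concentration for 50% growth inhibition is given as GI50. TGI denotes the concentration required for complete inhibition of growth.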

What was measured:
Experiment in all cases: NCI tumour cell line growth inhibition, 48 h
A498 renal = tested on: A498 renal
SR leukemia = tested on: SR leukemia
OVCAR-8 ovarian = tested on: OVCAR-8 ovarian
TK-10 renal = tested on: TK-10 renal
SK-MEL-2 melanoma = tested on: SK-MEL-2 melanoma
OVCAR-5 ovarian = tested on: OVCAR-5 ovarian
KM12 colon = tested on: KM12 colon
UACC-62 melanoma = tested on: UACC-62 melanoma
HCC-2998 colon = tested on: HCC-2998 colon
SK-MEL-28 melanoma = tested on: SK-MEL-28 melanoma

| Structure (SMILES) | TGI (A498 renal) | TGI (SR leukemia) | TGI (OVCAR-8 ovarian) | TGI (TK-10 renal) | TGI (SK-MEL-2 melanoma) | TGI (OVCAR-5 ovarian) | TGI (KM12 colon) | TGI (UACC-62 melanoma) | TGI (HCC-2998 colon) | TGI (SK-MEL-28 melanoma) | GI50 (OVCAR-8 ovarian) | GI50 (TK-10 renal) | GI50 (SK-MEL-2 melanoma) | GI50 (OVCAR-5 ovarian) | GI50 (KM12 colon) | GI50 (UACC-62 melanoma) | GI50 (HCC-2998 colon) | GI50 (SK-MEL-28 melanoma) | GI50 (A498 renal) | GI50 (SR leukemia) |
| --- | --- | --- | --- | --- | --- | --- | --- | --- | --- | --- | --- | --- | --- | --- | --- | --- | --- | --- | --- | --- |
| CNS(=O)(=O)NN(C)S(=O)(=O)c1ccc(C)cc1 | > 100 µM | > 100 µM | > 100 µM | > 100 µM | > 100 µM | > 100 µM | > 100 µM | > 100 µM | > 100 µM | > 100 µM | – | – | – | – | – | – | – | – | – | – |
| COc1ccc(Nc2nc3c(N)cc(C(F)(F)F)cc3nc2-c2ccccc2)cc1 | > 100 µM | > 100 µM | > 100 µM | > 100 µM | > 100 µM | > 100 µM | > 100 µM | > 100 µM | > 100 µM | > 100 µM | – | – | – | – | – | – | – | – | – | – |
| O=[N+]([O-])c1ccc([I+]c2ccccc2)cc1 | 6.49 µM and 5.48 µM | > 47.8 µM | 12.2 µM and 10.3 µM | 26.9 µM and 15.5 µM | 7.47 µM | 17 µM and 3.34 µM | 9.64 µM and 3.15 µM | 8.17 µM and 3.62 µM | 16.4 µM and 11.3 µM | 10.1 µM and 4.57 µM | 2.78 µM | 3.61 µM | 2.25 µM | 1.78 µM | 1.67 µM | 1.43 µM | 3.22 µM | 1.92 µM | – | – |
| Cc1ccc(S(=O)(=O)OC(C=O)C(O)C(O)COC(c2ccccc2)(c2ccccc2)c2ccccc2)cc1 (configuration not stated) | 32.6 µM | 24.7 µM | 26.5 µM | – | 29.9 µM | 34.7 µM | 24.2 µM | 28.9 µM | 24.3 µM | 35.9 µM | – | – | – | – | – | – | – | – | – | – |
| COc1cc2nc(-c3ccc(Cl)cc3)cc(OCCCN3CCC(O)CC3)c2cc1OC | 3.83 µM | 3.42 µM | 20.7 µM | 6.75 µM | 5.05 µM | 15.6 µM | 13.6 µM | 4.04 µM | 5.93 µM | 3.28 µM | 2 µM | 2.14 µM | 2.07 µM | 1.16 µM | 3.13 µM | 1.9 µM | 1.95 µM | 1.49 µM | 1.53 µM | 0.373 µM |
| C/C(=N\NC(=S)Nc1ccccc1)c1ccccn1 | 1.64 µM | 11.3 µM | 2.54 µM | 3.77 µM | 3.79 µM | 10.9 µM | 2.29 µM | 2.96 µM | 3.12 µM | 4.94 µM | < 0.0169 µM | 1.02 µM | 1.37 µM | 0.118 µM | 0.143 µM | 0.264 µM | 0.924 µM | 1.68 µM | 0.207 µM | 0.0703 µM |
| CCN(CC)c1ccc(/C=C/C2=[N+](C)c3ccccc3C2(C)C)cc1 | 12.2 µM | > 100 µM | > 100 µM | 10.6 µM | > 35.9 µM | 23.7 µM | 1.83 µM | 14.9 µM | 18.6 µM | 9.48 µM | 0.442 µM | 0.373 µM | 0.487 µM | 1.01 µM | 0.28 µM | 0.435 µM | 0.547 µM | 0.61 µM | 1.65 µM | > 20.9 µM |
| CN(C)CC1CCCC(CN(C)C)C1=O (configuration not stated) | 34.5 µM and > 100 µM | 1.64 µM | 5.86 µM and 10.6 µM | 7.88 µM and 2.63 µM | 20.6 µM and 35.2 µM | 32.7 µM and 33.7 µM | 16.9 µM and 33.3 µM | 18.3 µM and 33.4 µM | 29.5 µM and 36 µM | 5.21 µM and 33.8 µM | – | 2.81 µM and 0.861 µM | – | – | 6.05 µM and 17.2 µM | 8.32 µM and 18 µM | – | 2.17 µM and 18.3 µM | 19.1 µM and > 100 µM | 0.254 µM and 0.803 µM |
| Cn1cccc1C1CC(=O)N(CCC[Se]C#N)C1=O (configuration not stated) | 2.78 µM | > 100 µM | 4.44 µM | 4.06 µM | 5.31 µM | 6.51 µM | 5.36 µM | 3.91 µM | 10.1 µM | 5.96 µM | 2.05 µM | 1.79 µM | 2.13 µM | 2.49 µM | 2.11 µM | 1.87 µM | 2.96 µM | 2.24 µM | 1.3 µM | 2.76 µM |
| O=c1[nH]cnc2c1nnn2C1C=C(CO)C(O)C1O (configuration not stated) | > 100 µM | > 100 µM | > 100 µM | > 100 µM | > 100 µM | > 100 µM | > 100 µM | > 100 µM | > 100 µM | > 100 µM | – | – | – | – | – | – | – | – | – | – |
| O=C(O)Cc1ccccc1 | > 1000 µM and 1700 µM | > 1000 µM | > 2000 µM | > 2000 µM | > 2000 µM | > 2000 µM | > 2000 µM | > 2000 µM | > 2000 µM | > 2000 µM | > 1000 µM | > 1000 µM | > 1000 µM | > 1000 µM | > 1000 µM | > 1000 µM | > 1000 µM | > 1000 µM | > 1000 µM | – |
| O=C(/C=C/c1cccnc1)/C=C/c1cccnc1 | 4.66 µM | > 100 µM | 12.8 µM | 10.4 µM | 3.58 µM | 5.03 µM | 1.58 µM | 5.36 µM | 2.19 µM | 4.02 µM | 3.56 µM | 3.11 µM | 1.43 µM | 2.17 µM | 0.428 µM | 1.91 µM | 0.846 µM | 1.95 µM | 1.94 µM | 0.196 µM |
| COc1cc2c(cc1OCCCN1CCN(CCCOc3cc4c(cc3OC)C(=O)C3CCC[C@H]3C=N4)CC1)N=C[C@@H]1CCCC1C2=O (some centres not stated) | 7.49 µM | > 100 µM | > 52.3 µM | > 100 µM | 4.8 µM | > 27.2 µM | > 100 µM | 15.2 µM | 17.5 µM | > 100 µM | 11.6 µM | 7.9 µM | 1.71 µM | 4.84 µM | 22.7 µM | 6.49 µM | 7.21 µM | 32.9 µM | 2.17 µM | 0.367 µM |
| COC(=O)Oc1nn(C(=O)OC)c(=O)c2ccccc12 (tested in a mixture with another compound) | 99.4 µM | > 100 µM | > 100 µM | > 100 µM | > 100 µM | > 100 µM | > 100 µM | > 100 µM | > 100 µM | > 100 µM | – | – | – | – | – | – | – | – | – | – |
| COC(=O)C1(C)CCc2c(ccc3ccccc23)C1=O (configuration not stated) | 81 µM | > 100 µM | > 100 µM | 95.7 µM | 64.8 µM | > 100 µM | 70.4 µM | 98.1 µM | > 100 µM | > 100 µM | – | – | – | – | – | – | – | – | – | – |
